In patent publication US20240261274A1, “TREATMENT OF MYC-DRIVEN CANCERS WITH GSPT1 DEGRADERS” (MONTE ROSA THERAPEUTICS, INC., priority 2021, published 2024):
Like-named read-outs stand apart in the source and are kept apart here.

Experiments:
[1] = system: Human mammary epithelial cells, or HMECs, overexpressing c-Myc in a doxycycline-inducible manner; assay: Viability of HMECs with doxycycline-inducible c-Myc overexpression; assay type: cell-based; details: for induction of cell death: highest concentration tested 30 μM
Source text: X-axis represents m concentration of compound 8; y-axis represents viability normalized to DMSO.

[2] = system: MDA-MB-468, MDA-MB-231, MDA-MB-436 and CAL51 triple negative breast cancer models; assay: In vivo anti-tumor activity of compound 8 in triple negative breast cancer models; parameters: species or system mice; details: i.p. 37 and 75 mpk, 21 continuous days; all four models
Description: Shown are representative examples of triple negative breast cancer models with high 4EBP1 marker expression levels. Tumor growth was measured in MDA-MB-468 (ATCC HTB-132) (A), MDA-MB-231 (ATCC HTB-26) (B), MDA-MB-436 (ATCC HTB-130) (C) and CAL51 (DSMZ-ACC-302) (D) as indicated. compound 8 was dosed i.p at 37 and 75 mpk for 21 continuous days and tumor size measured every three days. Vehicle (black line), compound 8 dosed daily at 37 mpk (light grey) and 75 mpk (dark grey). X-axis represents days; y-axis represents the tumor volume (mm^3).

[3] = system: c-Myc HMEC isogenic cell line; assay: c-Myc and CRBN dependency, HMEC isogenic cell line viability (CellTiterGlo); assay type: cell-based, Human; details: 72 hours
Description: Human mammary epithelial cells (HMEC) were engineered to express either c-Myc tagged with EGFP or EGFP alone (non myc) (analogous but distinct from Kessler J D et al, Science. 2012 Jan. 20; 335(6066):348-53. doi: 10.1126/science.1212728; Hsu T Y et al, Nature. 2015 Sep. 17; 525(7569):384-8. doi: 10.1038/nature14985). The engineered cells were plated in 6 well plates or seeded at 1000 (myc) or 4000 (non myc) cells/well in a 384 ultra-low attachment plate in a total volume of 40 μL HMEC cell culture media (DMEM/F12+10% HI-FBS+15 mM HEPES+0.5 ug/ml Hydrocortisone+10 ug/ml Insulin+20 ng/ml EGF). Cells were cultured in the presence or absence of doxycycline for 25 population doublings and cell lysates generated for western blotting probing for c-Myc, 4EBP1, phosphor-4EBP1 (p4EBP1) as indicated. β-actin used as a loading control. For the wash-off lane, doxycycline was removed 24 hours before cell lysis. Cell viability was assessed in the presence (Myc on) or absence (Myc off, −Dox) of doxycycline and also following doxycycline removal (Myc off, wash-off). Cell viability was performed following treatment with compound 8 for 72 hours as recommended by the provider (Promega, CellTiterGlo). Similarly, CRBN-dependency was assessed in the HMEC proficient and deficient cell lines induced for c-Myc expression with doxycycline and viability performed as above following 72 hours of treatment with compound 8. EC50 values were determined using Prism8 (GraphPad) and the asymmetric (five-parameter) equation and least squares fit.

GSPT1 = GSPT1 (Homo sapiens, UniProt P15170+Q96SW2); assay: GSPT1 levels in breast cancer tumors after compound 8 (western blotting); assay type: in vivo; parameters: endogenous in cells; details: three consecutive doses at 37 and 75 mpk; tumors harvested 24 hr post third dose; MDA-MB-468, MDA-MB-231, MDA-MB-436, CAL51
Description: Representative examples below show the levels of GSPT1 in MDA-MB-468 (ATCC HTB-132), MDA-MB-231 (ATCC HTB-26), MDA-MB-436 (ATCC HTB-130) and CAL51 (DSMZ-ACC-302) tumors (in lanes from top down as indicated) following three consecutive doses of compound 8 at 37 (right panel) and 75 mpk (middle panel) or administration of vehicle only (left panel). GADPH levels as control is shown in the lowest lane. Tumors were harvested 24 hr post third dose and levels of GSPT1 were determined by western blotting as indicated. Tumors were collected from the in vivo efficacy studies described in the previous FIG. 7A.

N-Myc = N-Myc total protein levels in NSCLC lines after Compound 345 (western blot); assay type: cell-based; details: NSCLC cancer lines; N-Myc not detectable in NCI-H2023
Description: NCI-H1155 and NCI-H2023 were taken as representative of N-Myc high and low NSCLC. 12A: western blot analysis probing for GSPT1 and N-Myc following treatment with Compound 345 (as indicated). Tubulin was used as a loading control. N-Myc could not be detected by western blotting in the NCI-H2023 line. 12B: Single-sample gene set enrichment analysis (ssGSEA) results for a Myc target gene set at 6 hours (left) and 24 hours (right) after treatment. ssGSEA scores were normalized to DMSOs for each cell line and averaged for three replicates. Error bars denote+/−1 s.d. across replicates.

[4] = system: patient-derived xenografts; assay: In vivo mouse patient-derived xenograft experiment, survival, Compound 345
Source text: FIGS. 14A and 14B: In vivo mouse patient-derived xenograft experiment.

MM1S cell line = assay: Caspase 3/7 apoptosis Glo assay in MM1S; assay type: cell-based; details: 48 hr treatment

Chain of GSPT1 (P15170 whole entry): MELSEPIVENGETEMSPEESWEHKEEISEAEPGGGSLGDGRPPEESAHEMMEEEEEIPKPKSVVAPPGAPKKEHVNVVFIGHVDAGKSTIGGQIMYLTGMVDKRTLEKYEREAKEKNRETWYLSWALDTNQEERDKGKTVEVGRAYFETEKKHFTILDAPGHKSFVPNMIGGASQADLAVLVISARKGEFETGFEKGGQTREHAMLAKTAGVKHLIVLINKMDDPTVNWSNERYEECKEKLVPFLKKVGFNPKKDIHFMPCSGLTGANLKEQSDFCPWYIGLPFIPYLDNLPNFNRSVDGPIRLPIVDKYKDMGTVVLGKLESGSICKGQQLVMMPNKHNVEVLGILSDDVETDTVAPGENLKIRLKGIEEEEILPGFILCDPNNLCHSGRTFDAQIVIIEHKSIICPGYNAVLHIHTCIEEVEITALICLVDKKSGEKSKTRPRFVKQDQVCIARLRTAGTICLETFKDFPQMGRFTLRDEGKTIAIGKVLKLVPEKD
Chain of GSPT1 (Q96SW2 whole entry): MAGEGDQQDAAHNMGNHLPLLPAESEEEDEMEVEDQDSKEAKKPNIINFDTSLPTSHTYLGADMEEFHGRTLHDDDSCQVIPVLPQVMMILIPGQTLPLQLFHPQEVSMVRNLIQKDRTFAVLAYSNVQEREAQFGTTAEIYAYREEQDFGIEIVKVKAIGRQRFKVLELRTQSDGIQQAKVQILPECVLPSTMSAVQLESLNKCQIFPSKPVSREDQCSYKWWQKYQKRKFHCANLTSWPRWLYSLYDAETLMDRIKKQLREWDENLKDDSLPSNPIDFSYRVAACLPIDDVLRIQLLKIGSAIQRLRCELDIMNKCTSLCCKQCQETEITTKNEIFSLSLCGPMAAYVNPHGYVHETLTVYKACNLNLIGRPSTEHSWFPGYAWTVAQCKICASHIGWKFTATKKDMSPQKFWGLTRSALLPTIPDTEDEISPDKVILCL
Chain of GSPT1 (Q16531 whole entry partner): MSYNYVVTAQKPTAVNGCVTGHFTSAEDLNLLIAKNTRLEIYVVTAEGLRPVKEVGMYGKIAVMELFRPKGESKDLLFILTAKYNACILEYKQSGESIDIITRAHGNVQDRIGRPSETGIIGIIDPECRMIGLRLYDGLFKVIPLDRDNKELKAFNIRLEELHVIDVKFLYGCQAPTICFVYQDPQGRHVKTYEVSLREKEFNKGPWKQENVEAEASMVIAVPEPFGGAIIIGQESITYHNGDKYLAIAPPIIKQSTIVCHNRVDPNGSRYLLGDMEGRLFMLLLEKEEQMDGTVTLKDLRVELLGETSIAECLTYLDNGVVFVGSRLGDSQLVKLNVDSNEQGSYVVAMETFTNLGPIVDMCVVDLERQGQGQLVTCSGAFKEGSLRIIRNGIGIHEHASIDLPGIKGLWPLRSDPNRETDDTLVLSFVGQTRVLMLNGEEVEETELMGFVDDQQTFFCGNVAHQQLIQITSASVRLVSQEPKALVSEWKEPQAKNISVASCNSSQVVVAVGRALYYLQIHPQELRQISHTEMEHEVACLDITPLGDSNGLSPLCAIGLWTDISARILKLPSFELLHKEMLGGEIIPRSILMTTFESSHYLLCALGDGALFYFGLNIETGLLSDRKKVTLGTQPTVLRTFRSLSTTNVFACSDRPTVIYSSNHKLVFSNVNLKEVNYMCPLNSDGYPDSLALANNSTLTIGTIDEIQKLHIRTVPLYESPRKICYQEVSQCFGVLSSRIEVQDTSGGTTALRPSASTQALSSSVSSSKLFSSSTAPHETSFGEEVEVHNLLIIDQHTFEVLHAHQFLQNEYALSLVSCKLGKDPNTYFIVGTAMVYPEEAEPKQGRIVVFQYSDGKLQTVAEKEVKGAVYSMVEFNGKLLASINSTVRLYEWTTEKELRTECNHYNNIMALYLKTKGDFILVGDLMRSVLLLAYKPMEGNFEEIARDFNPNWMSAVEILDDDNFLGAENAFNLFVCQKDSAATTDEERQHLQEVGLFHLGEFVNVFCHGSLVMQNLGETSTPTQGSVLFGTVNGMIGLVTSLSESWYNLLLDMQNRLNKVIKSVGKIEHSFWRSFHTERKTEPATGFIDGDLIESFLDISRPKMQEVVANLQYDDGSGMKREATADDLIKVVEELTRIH

Structure (SMILES) | EC50 ([1]; Homo sapiens, HMEC, presence of high c-Myc expression, read-out: EC50 of induced cell death (viability normalized to DMSO)) | induction of cell death ([1]; absence of doxycycline-driven c-Myc expression) | induction of cell death ([1]; after doxycycline was washed out to remove c-Myc expression) | anti-tumor activity (tumor volume) [2] | cell death in cells for which cereblon was knocked out ([3]; CRBN deficient HMEC induced for c-Myc) | EC50 ([3]; Homo sapiens, HMEC, absence of doxycycline-driven c-Myc expression, read-out: cell death, highest concentration tested) | EC50 ([3]; Homo sapiens, HMEC, presence of high c-Myc expression (doxycycline), read-out: EC50 of induced cell death) | EC50 ([3]; after doxycycline was washed out to remove c-Myc expression, read-out: cell death, highest concentration tested) | GSPT1 levels in tumors (GSPT1) | N-Myc total protein levels, timecourse (N-Myc) | survival ([4]; biomarker negative patient-derived xenografts) | survival ([4]; biomarker positive (high N-Myc or L-Myc mRNA expression) patient-derived xenografts) | apoptosis (Caspase 3/7) (MM1S cell line)
Cc1ccc(NC(=O)NCc2ccc3c(c2)C(=O)N(C2CCC(=O)NC2=O)C3)cc1Cl (stereo not shown) [Compound 8] | 640 nM | did not induce cell death | did not induce cell death | robust and dose-dependent anti-tumor activity, including regressions | did not induce death | > 30000 nM | 640 nM | > 30000 nM | robust and dose-dependent degradation of GSPT1 levels in tumors | – | – | – | –
O=C1CCC(N2Cc3ccc(COC(=O)Nc4cc(OC(F)(F)F)ccc4F)cc3C2=O)C(=O)N1 (stereo not shown) [Compound 345, (2-(2,6-dioxopiperidin-3-yl)-3-oxoisoindolin-5-yl)methyl(2-fluoro-5-(trifluoromethoxy)phenyl)carbamate] | – | – | – | – | – | – | – | – | – | downregulation of N-Myc total protein levels | but not in the biomarker negative patient-derived xenografts | significantly prolonged survival | Apoptosis induction
